For 8 compounds, EC50 results are on record in ChEMBL document CHEMBL1155613, “Urinary metabolites of gallic acid in rats and their radical-scavenging effects on 1,1-diphenyl-2-picrylhydrazyl radical” (J Nat Prod, 2000).

The subject of the test is Radical scavenging activity. Nature of the test: Antioxidant activity assessed as DPPH free radical scavenging activity. The class given is functional.

Take `COc1c(O)cc(C(=O)O)cc1OS(=O)(=O)O`: the EC50 is greater than 100 µM.

With `COc1c(O)cc(C(=O)O)cc1O`, the EC50 is greater than 100 µM.

For `COc1c(O)cccc1O[C@@H]1O[C@H](C(=O)O)[C@@H](O)[C@H](O)[C@H]1O`, the concentration for a half-maximal effect (EC50) is greater than 100 µM.

In the case of `Cc1c(C)c2c(c(C)c1O)CCC(C)(CCCC(C)CCCC(C)CCCC(C)C)O2` (racemic) [alpha-TOCHOPHEROL], the EC50 is 19.9 µM.

Turning to `COc1c(O)cccc1O` [2-METHOXYRESORCINOL], the EC50 turned out to be 99.6 µM.

As to `O=C1O[C@H]([C@@H](O)CO)C(O)=C1O` [ASCORBIC ACID], the EC50 was 16.6 µM.

In the case of `O=C(O)c1cc(O)c(O)c(O)c1` [GALLIC ACID], the 50% effective concentration (EC50) worked out at 4.2 µM.

Consider `Oc1cccc(O)c1O` [PYROGALLOL], for which the EC50 amounted to 4.2 µM.
